The nature of data set [1]: in vitro. Particulars: human, Caco-2.
Description: Apparent permeability across apical to basolateral side in human Caco2 cells at 2 uM measured after 2 hrs by LC-MS/MS analysis
Data set [2] has as its system A-375. The experiment in a line: cells. The data set is classed as functional. Particulars: Homo sapiens, time 72 hrs.
Description: Antiproliferative activity against human A375 cells assessed as cell proliferation at 25 uM after 72 hrs by alamarBlue cell proliferation assay relative to control
The species named for data set [3] is Rattus norvegicus. The experiment in a line: animal or person. It is filed as functional. The following applies: iv, 0.5 min, time 30 sec.
Description: Antiallergic activity in iv dosed rat model of IgE-mediated passive cutaneous anaphylaxis administered 30 secs prior to IgE challenge
The target of data set [4] is Carbonic anhydrase 2 (Homo sapiens, UniProt P00918). It is filed as ADME.
Description: Inhibition of human carbonic anhydrase 2 using 4-nitrophenyl acetate as substrate by spectrophotometry
Data set [5] can be described thus: physchem. Particulars: buffer.
Description: Thermodynamic solubility in water by equilibrium shake-flask method
Data set [6] deals with Vascular endothelial growth factor receptor 2 (Homo sapiens, UniProt P35968). It is filed as cell-based, Sf9.
Chain of Vascular endothelial growth factor receptor 2 (P35968 whole entry): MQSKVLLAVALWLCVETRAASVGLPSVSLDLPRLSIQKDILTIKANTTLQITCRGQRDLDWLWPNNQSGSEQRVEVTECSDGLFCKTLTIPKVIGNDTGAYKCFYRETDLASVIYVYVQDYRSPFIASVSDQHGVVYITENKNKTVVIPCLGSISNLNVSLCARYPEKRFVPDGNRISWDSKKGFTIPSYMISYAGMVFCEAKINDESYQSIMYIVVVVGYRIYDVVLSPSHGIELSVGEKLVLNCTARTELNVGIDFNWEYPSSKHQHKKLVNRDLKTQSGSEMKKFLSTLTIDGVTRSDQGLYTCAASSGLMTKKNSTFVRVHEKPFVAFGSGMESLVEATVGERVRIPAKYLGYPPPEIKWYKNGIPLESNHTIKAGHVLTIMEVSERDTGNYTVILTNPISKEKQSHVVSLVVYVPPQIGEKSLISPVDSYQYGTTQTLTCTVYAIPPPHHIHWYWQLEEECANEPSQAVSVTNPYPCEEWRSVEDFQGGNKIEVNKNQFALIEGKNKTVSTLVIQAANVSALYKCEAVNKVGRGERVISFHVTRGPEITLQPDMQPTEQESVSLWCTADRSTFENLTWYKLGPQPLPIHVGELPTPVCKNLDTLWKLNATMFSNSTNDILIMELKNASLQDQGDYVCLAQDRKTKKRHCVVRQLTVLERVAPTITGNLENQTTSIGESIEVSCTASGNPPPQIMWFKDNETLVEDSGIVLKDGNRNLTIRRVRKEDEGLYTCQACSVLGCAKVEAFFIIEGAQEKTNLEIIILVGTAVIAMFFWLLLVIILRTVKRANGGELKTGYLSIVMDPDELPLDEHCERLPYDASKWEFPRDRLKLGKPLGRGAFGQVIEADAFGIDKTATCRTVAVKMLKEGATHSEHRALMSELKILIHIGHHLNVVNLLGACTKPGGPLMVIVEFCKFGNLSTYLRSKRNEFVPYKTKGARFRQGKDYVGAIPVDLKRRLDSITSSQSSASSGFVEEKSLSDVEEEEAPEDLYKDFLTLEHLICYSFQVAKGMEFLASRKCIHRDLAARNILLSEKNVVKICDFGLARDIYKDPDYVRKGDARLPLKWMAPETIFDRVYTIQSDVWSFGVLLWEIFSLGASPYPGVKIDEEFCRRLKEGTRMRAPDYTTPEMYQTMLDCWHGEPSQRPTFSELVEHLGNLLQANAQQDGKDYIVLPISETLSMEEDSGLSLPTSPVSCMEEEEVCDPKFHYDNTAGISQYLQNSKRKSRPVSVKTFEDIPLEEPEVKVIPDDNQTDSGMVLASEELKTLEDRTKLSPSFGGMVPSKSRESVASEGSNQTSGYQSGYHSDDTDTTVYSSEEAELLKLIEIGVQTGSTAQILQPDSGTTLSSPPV
Data set [7] can be described thus: physchem. The following applies: in vivo, pH 7.4.
The target in data set [8] is Dipeptidyl peptidase 4 (Homo sapiens, UniProt P27487).
Chain of Dipeptidyl peptidase 4 (P27487 whole entry): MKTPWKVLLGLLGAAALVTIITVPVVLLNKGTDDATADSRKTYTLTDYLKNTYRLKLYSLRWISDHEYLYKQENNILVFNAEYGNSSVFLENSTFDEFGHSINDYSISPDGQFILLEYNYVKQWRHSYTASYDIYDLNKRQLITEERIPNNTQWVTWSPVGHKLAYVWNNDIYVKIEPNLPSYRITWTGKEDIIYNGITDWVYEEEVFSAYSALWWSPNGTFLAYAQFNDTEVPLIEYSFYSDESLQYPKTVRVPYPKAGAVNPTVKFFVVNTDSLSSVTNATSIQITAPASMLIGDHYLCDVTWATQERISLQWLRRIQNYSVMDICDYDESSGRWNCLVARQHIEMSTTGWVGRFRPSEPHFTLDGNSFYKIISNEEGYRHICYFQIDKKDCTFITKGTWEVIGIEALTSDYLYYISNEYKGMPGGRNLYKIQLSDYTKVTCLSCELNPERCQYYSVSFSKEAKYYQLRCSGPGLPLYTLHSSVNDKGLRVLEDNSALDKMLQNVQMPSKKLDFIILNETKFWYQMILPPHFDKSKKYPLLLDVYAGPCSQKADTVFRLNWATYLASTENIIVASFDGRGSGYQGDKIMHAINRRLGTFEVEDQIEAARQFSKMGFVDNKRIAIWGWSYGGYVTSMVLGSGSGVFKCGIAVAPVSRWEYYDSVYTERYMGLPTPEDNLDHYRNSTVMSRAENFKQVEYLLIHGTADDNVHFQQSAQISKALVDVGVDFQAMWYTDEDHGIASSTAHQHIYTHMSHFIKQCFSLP
Description: Inhibition of human DPP4 expressed in baculovirus expression system using Gly-Pro-AMC as substrate by fluorometric assay
Data set [9] deals with Plasmodium falciparum. Kind of data set: microbe, parasite or virus in culture. Particulars: 3D7, Erythrocyte, 48 h. It is filed as functional, organism-based.
Description: Antiplasmodial activity against Plasmodium falciparum 3D7 infected in human erythrocytes incubated for 48 hrs by lactate dehydrogenase colorimetric enzyme assay
The test system of data set [10] is MCF7. Kind of data set: cells. The data set is classed as functional, cell-based. Particulars: Homo sapiens, MCF7, 96 h.
Description: Antiproliferative activity against human MCF7 cells incubated for 4 days by crystal violet staining based assay
Data set [11] deals with T1, Cyclin-dependent kinase 2/cyclin E1 (Homo sapiens, UniProt P24941). The data set is classed as cell-based, Sf9.
Data set [12] has as its target Cyclin-dependent kinase 1/cyclin B1 (Homo sapiens, UniProt P06493). It is filed as cell-based, Sf9.
For data set [13] the following is noted: rat, hepatocytes, 1 µM.
Description: Clearance in rat hepatocytes at 1 uM measured after 2 to 90 mins by HPLC-based LCMS/MS analysis
For data set [14] the following is noted: human, hepatocytes, 1 µM.
Description: Clearance in human hepatocytes at 1 uM measured after 2 to 90 mins by HPLC-based LCMS/MS analysis
Data set [15] has as its target cGMP-specific 3',5'-cyclic phosphodiesterase (Homo sapiens, UniProt O76074). The data set is classed as cell-based. The following applies: platelet.
Description: Inhibition of human platelets derived PDE5 using [3H]-cGMP as substrate incubated for 60 min by scintillation proximity assay
Data set [16] can be described thus: in vitro. Particulars: human, Caco-2. This is another data set of the same source.
Description: Efflux ratio of apparent permeability across basolateral to apical side over apical to basolateral side in human Caco2 cells
Data set [17] concerns the target T1, Cyclin-dependent kinase 2/cyclin E1. The data set is classed as cell-based, Sf9. The source holds these as a separate data set.
The target in data set [18] is T2, Estrogen receptor (Homo sapiens, UniProt P03372).
T2 sequence (P03372 whole entry): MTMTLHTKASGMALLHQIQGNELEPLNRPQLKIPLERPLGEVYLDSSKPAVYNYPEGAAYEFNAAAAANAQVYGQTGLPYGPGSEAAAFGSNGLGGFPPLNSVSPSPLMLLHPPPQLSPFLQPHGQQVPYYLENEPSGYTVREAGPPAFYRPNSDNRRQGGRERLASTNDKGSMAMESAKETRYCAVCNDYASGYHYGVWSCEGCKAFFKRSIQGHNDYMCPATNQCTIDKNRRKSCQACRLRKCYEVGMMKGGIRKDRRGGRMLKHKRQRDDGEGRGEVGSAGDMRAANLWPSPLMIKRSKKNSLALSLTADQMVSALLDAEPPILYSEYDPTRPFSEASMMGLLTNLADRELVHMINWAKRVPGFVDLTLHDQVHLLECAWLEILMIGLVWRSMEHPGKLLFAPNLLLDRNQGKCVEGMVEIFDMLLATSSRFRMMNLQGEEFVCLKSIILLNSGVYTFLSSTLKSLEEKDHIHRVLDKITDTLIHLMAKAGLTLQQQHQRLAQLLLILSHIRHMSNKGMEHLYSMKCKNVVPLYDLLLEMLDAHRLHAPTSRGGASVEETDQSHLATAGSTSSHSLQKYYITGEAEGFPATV
Description: Inhibition of wild type ESR1 (unknown origin) by transactivation assay

A short description of data set [19]: physchem. Particulars: in vivo, pH 6.5.
In data set [20] the test system is Plasmodium falciparum. The experiment in a line: microbe, parasite or virus in culture. The data set is classed as functional, organism-based. Particulars: 3D7.
Description: Antiplasmodial activity against Plasmodium falciparum 3D7
Data set [21] has as its target T3, 1,25-dihydroxyvitamin D(3) 24-hydroxylase, mitochondrial (Homo sapiens, UniProt Q07973).
T3 sequence (Q07973 whole entry): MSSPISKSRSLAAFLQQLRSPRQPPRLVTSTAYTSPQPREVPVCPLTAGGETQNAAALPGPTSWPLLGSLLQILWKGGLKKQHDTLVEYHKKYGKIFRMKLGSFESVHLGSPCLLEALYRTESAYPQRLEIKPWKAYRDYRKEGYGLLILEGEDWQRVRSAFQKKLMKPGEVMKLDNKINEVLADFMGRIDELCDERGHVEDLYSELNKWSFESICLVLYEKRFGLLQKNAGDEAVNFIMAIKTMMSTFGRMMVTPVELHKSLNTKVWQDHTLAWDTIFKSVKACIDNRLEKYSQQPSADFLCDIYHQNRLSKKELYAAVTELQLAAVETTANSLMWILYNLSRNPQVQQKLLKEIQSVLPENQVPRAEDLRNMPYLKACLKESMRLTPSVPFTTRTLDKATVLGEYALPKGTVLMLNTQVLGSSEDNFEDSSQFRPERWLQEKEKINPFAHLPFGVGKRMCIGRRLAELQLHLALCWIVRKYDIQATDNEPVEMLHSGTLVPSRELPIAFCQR
The experiment in a line: biochemical. The data set is classed as cell-based, V79.

In data set [22] the target is Beta-secretase 1 (Homo sapiens, UniProt P56817). The data set is classed as cell-based, HEK293.
Chain of Beta-secretase 1 (P56817 whole entry): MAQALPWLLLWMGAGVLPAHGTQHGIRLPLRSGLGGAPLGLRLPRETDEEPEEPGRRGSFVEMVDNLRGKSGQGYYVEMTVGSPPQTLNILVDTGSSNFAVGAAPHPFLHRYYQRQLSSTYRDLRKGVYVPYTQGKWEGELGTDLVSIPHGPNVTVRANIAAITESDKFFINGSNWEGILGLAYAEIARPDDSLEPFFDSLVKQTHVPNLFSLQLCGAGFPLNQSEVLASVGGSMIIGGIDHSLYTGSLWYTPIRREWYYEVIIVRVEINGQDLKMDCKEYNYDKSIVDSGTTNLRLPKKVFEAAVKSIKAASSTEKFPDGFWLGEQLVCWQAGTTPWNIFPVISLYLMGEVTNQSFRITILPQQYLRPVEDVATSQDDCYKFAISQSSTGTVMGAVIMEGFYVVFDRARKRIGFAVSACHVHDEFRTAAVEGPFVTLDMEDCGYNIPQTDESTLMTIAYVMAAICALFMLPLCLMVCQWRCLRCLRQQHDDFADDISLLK
Description: Inhibition of BACE1 in HEK293 cells harboring APP assessed as reduction in amyloidbeta 40 level measured after 18 to 20 hrs by AlphaLISA Assay
The test system of data set [23] is HeLa. The experiment in a line: cells. The data set is classed as functional, cell-based. Particulars: Homo sapiens, 96 h.
Description: Antiproliferative activity against human HeLa cells incubated for 96 hrs by crystal violet staining assay
The target of data set [24] is T4, Nuclear receptor ROR-gamma (Homo sapiens, UniProt P51449).
T4 sequence (P51449 whole entry): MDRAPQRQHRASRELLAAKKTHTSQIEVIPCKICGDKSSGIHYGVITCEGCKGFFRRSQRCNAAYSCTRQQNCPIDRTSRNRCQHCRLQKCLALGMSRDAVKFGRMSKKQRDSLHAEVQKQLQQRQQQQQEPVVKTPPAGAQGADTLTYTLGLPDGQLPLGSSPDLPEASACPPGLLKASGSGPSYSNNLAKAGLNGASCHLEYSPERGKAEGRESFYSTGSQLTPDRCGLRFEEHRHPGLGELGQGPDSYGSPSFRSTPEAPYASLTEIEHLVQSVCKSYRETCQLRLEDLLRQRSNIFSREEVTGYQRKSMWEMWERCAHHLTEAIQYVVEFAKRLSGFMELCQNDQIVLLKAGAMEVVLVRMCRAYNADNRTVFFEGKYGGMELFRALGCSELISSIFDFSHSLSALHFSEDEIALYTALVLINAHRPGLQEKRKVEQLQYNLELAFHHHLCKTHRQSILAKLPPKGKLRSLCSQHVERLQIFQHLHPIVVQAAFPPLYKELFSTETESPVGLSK
The data set is classed as cell-based, CD4+ve Th.
Description: Inverse agonist activity at RORgammat in human CD4-positive T cells assessed as reduction in Th17 level incubated for 5 days by MSD electrochemiluminescent cytokine assay

The species entered for data set [25] is Rattus norvegicus. Kind of data set: animal or person. The data set is classed as functional. The following applies: po, 0.5 h, time 30 min.
Description: Antiallergic activity in po dosed rat model of IgE-mediated passive cutaneous anaphylaxis administered 30 mins prior to IgE challenge

In brackets after ≈: the same amount, converted by molar mass. Where only a bound is given, the exact number is not on record here.

Chain of Cyclin-dependent kinase 1/cyclin B1 (P06493 whole entry): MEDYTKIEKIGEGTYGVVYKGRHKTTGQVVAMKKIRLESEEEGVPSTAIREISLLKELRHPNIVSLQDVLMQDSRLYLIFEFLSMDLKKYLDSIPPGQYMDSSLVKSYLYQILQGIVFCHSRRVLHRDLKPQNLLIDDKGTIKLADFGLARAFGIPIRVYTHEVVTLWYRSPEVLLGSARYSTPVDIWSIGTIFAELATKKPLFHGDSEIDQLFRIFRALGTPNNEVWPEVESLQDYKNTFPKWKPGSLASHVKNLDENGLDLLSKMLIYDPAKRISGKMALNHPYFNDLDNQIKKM
Chain of Cyclin-dependent kinase 1/cyclin B1 (P14635 whole entry, further chain): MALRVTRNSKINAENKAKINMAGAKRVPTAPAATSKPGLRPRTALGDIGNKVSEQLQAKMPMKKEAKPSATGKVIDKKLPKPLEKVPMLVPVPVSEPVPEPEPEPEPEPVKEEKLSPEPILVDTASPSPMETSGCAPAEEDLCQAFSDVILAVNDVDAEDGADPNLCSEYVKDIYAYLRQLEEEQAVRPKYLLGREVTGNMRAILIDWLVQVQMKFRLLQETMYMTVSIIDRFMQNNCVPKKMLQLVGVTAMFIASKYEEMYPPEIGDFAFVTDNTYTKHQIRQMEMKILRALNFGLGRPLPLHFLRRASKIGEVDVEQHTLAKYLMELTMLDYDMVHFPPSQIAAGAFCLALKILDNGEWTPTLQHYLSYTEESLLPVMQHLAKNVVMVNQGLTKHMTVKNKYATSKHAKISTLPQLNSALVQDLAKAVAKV

What is called Papp A→B is the apparent permeability from the apical to the basolateral side of a cell layer. A lower Papp A→B goes with poor permeation. `CCCc1nc(C)c2c(=O)[nH]c(-c3cc(S(=O)(=O)N4CCN(CC)CC4)ccc3OCC)nn12` yielded an apical-to-basolateral permeability (Papp A→B) at 2 h, 2 µM in [1] of 206 ×10⁻⁶ cm/s.

In turn, `O=C(NS(=O)(=O)c1ccc(Br)s1)c1ccc(Cl)cc1Cl` gave a growth at 25 µM in [2] of 25%. The ED50 is the dose at which the effect has come halfway, by size or by number of responders. A low value points to an effect at a small dose. Turning to `CS(=N)(=O)c1ccc2oc3ccc(C(=O)O)cc3c(=O)c2c1` (configuration not stated), it took a dose of 0.03 mg/kg to reach the 50% effect level in [3] (ED50). The term IC50 denotes the concentration needed to halve the response being measured. A higher IC50 goes with lower potency. For `C[C@@H](O)[C@@H](C)Oc1nc(Nc2ccc(S(C)(=O)=O)cc2)ncc1C(F)(F)F`, in [4], the IC50 is greater than 10000 nM. As usually defined, the solubility (thermodynamic) is the concentration in solution at equilibrium with solid. Take `C[C@@H](O)[C@@H](C)Oc1nc(Nc2ccc([S@](=N)(=O)C3CC3)cc2)ncc1C(F)(F)F`: in [5], the thermodynamic solubility was 182 µg/mL (≈ 423 µM). For the same molecule, the half-maximal inhibitory concentration (IC50) in data set [6] is 163 nM; in data set [4], greater than 10000 nM. Consider `COc1cc(F)ccc1-c1ncnc(Nc2cccc(CS(N)(=O)=O)c2)n1`, for which the solubility (thermodynamic) at 24 h in [7] was determined as 11 µg/mL (≈ 28.2 µM).

In data set [8], `N[C@H]1C[C@@H](N2Cc3cn(S(=O)(=O)NC(=O)c4ccccc4)nc3C2)CO[C@@H]1c1cc(F)ccc1F` yielded an IC50 of 8.8 nM. This counts as single-digit nanomolar. In the case of `CC(C)(C)c1ccc2c(c1)[C@H]1O[C@H](COCc3ccccc3)[C@@H](OCc3ccccc3)[C@H](OCc3ccccc3)[C@H]1C[S@@]2(=N)=O`, half-maximal inhibition in [9] (IC50) required 800 nM.

Consider `CCS(=N)(=O)c1ccc(Nc2ncc(Br)c(O[C@H](C)[C@@H](C)O)n2)cc1` (some centres not stated), for which the IC50 in data set [10] is 44 nM; in [11], 3 nM; in data set [12] it was 2 nM; in data set [6], 32 nM; in data set [4] it was greater than 10000 nM. On to `N=S1(=O)CCC(NC(=O)c2n[nH]cc2NC(=O)c2c(Cl)cccc2Cl)CC1` (configuration not stated), for which the CLH in [13] and in [14] was 1 mL/min/kg each time.

Molecule `CN=S1(=O)C[C@@H]2[C@@H](OCc3ccccc3)[C@H](OCc3ccccc3)[C@@H](COCc3ccccc3)O[C@@H]2c2cc(C(C)(C)C)ccc21` (some centres not stated) came in with a 50% inhibitory concentration (IC50) in data set [9] of 900 nM. Usually efflux ratio stands for a quotient of directional permeabilities that is used to spot active efflux. As to `CCCc1nc(C)c2c(=O)[nH]c(-c3cc(S(=O)(=O)N4CCS(=N)(=O)CC4)ccc3OCC)nn12`, in data set [1], the Papp A→B at 2 h, 2 µM came to 0.71 ×10⁻⁶ cm/s. This molecule came in with an IC50 in data set [15] of 0.025 nM. For the same molecule, the efflux ratio in data set [16] turned out to be 288.

The molecule `COc1cc(F)ccc1-c1cc(Nc2cc(C[S@@](C)(=N)=O)ccn2)ncc1F` registered an IC50 in data set [17] of 2920 nM. Take `C[C@H](CO)Nc1nc(Nc2ccc(S(N)(=O)=O)cc2)ncc1Br.Cl`: the solubility (thermodynamic) in data set [5] amounted to 8 µg/mL. For the same molecule, the IC50 was 34 nM in data set [6] and 514 nM in data set [4]. Consider `CS(=O)(=NS(=O)(=O)c1ccccc1)n1cc2c(n1)CN([C@H]1CO[C@H](c3cc(F)ccc3F)[C@@H](N)C1)C2` (some centres not stated), for which, in [8], the IC50 was 18 nM. This counts as double-digit nanomolar.

The molecule `C[C@]12CC[C@@H]3c4ccc(O)cc4C[C@@H](CCCCCCCCC[S@@](=N)(=O)CCCC(F)(F)C(F)(F)F)[C@H]3[C@@H]1CC[C@@H]2O` gave a 50% inhibitory concentration (IC50) in data set [18] of 1.8 nM. This lies in the single-digit nanomolar range. In [2], `N=S(=O)(NC(=O)c1ccc(Cl)cc1Cl)c1ccc(Br)s1` (configuration not stated) yielded a growth at 25 µM of 40%.

Molecule `COc1cc(F)ccc1-c1nc(Nc2cc(F)cc(CS(C)(=N)=N)c2)ncc1F` came in with a solubility (thermodynamic) at 24 h in data set [19] of 91 µg/mL (≈ 216 µM). As to `CCCCCCCCCCCS(=O)(=NCc1cn(Cc2ccccc2)nn1)c1ccccc1` (configuration not stated), the IC50 in data set [20] turned out to be 6600 nM. As to `C=C1/C(=C\C=C2/CCC[C@]3(C)C([C@H](C)/C=C/S(=O)(=O)C(C)(C)C)=CC[C@@H]23)C[C@@H](O)C[C@@H]1O`, in [21], the IC50 came to 27 nM. Take `Cc1cc(C#N)cnc1C(=O)Nc1ccc(F)c([C@]2(C)CS(=O)(=NCC(F)(F)F)N(C)C(N)=N2)c1` (single isomer, unassigned): in data set [22], the IC50 was 0.99 nM. Same read-out and setting: as for `CN=S1(=O)C[C@@](C)(c2cc(NC(=O)c3ncc(C#N)cc3C)ccc2F)N=C(N)N1CC(F)(F)F` (single isomer, unassigned), the figure is 0.59 nM; as for `N#Cc1ccc(C(=O)Nc2ccc(F)c([C@]3(CF)CS4(=O)=NCCCCN4C(N)=N3)c2)nc1` (single isomer, unassigned), 28 nM.

With `C[C@@]1(c2cc(NC(=O)c3cnc(C#N)cn3)ccc2F)CS2(=O)=NCC(F)(F)CN2C(N)=N1` (single isomer, unassigned), in data set [22], half-maximal inhibition (IC50) was put at 2 nM. As to `O=C(NC1CCNCC1)c1n[nH]cc1NC(=O)c1c(Cl)cccc1Cl` [AT-7519], the CLH in data set [13] was determined as 29.3 mL/min/kg; in data set [14] it was 4 mL/min/kg. Consider `COc1cc(F)ccc1-c1ncnc(Nc2cccc(C[S@](C)(=N)=O)c2)n1` [ATUVECICLIB], for which the IC50 in [23] is 1500 nM. The solubility (thermodynamic) at 24 h in data set [7] was found to be 479 µg/mL (≈ 1240 µM). As to `O=C([O-])c1cc(=O)c2c(OCC(O)COc3cccc4oc(C(=O)[O-])cc(=O)c34)cccc2o1.[Na+].[Na+]` [CROMOLYN SODIUM], in data set [3], the ED50 worked out at 1.21 mg/kg.

In turn, `CCc1ccc(N(CC(C)C)S(=O)(=O)c2ccc(OCC3CCOCC3)c(CO)c2)cc1` [GSK2981278] came in with an IC50 in [24] of 3.2 nM. `CCCCCCc1cc(S(C)(=N)=O)cc2c(=O)c3cc(C(=O)O)ccc3oc12` (configuration not stated) [SUDEXANOX] gave an ED50 in data set [25] of 0.19 mg/kg.

Source of the values: ChEMBL document CHEMBL4706546, “Sulfoximines as Rising Stars in Modern Drug Discovery? Current Status and Perspective on an Emerging Functional Group in Medicinal Chemistry” (J Med Chem, 2020).
